Experimental data taken from ChEMBL document CHEMBL4387741, “Optimization of novel reversible Bruton's tyrosine kinase inhibitors identified using Tethering-fragment-based screens” (Bioorg Med Chem, 2019).

How the values were obtained:
[1] = molecular target: Activin receptor type-1 (Homo sapiens) (UniProt Q04771); assay: Inhibition of wild-type human ACVR1 (C188 to C509 residues) expressed in bacterial expression system at 1 uM by Kinomescan method relative to control
[2] = molecular target: Tyrosine-protein kinase BTK (Homo sapiens, UniProt Q06187); assay: Inhibition of wild-type human full length BTK (M1 to S659 residues) expressed in mammalian expression system at 1 uM by Kinomescan method relative to control
Tyrosine-protein kinase BTK, sequence (Q06187 whole entry, the tested form may be a part): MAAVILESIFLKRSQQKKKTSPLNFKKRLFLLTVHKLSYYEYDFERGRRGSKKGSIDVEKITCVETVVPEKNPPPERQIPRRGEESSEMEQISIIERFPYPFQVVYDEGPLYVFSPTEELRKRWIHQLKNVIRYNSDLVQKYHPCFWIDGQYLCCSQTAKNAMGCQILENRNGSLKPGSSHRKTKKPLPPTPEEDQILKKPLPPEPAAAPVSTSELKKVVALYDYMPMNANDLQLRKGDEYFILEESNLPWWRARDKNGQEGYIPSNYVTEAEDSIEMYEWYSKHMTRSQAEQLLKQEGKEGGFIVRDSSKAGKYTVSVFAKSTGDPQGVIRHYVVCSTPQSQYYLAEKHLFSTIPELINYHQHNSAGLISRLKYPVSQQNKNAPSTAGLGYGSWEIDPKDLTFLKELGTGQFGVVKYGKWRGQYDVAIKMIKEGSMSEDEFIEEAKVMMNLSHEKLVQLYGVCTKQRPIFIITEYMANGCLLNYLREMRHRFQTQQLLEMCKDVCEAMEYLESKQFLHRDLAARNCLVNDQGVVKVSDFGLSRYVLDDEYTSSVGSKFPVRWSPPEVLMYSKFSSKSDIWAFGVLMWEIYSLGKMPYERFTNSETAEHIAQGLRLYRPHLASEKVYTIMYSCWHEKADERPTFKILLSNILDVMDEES

[3] = molecular target: Cyclin-dependent kinase-like 1 (Homo sapiens) (UniProt Q00532); assay: Inhibition of wild-type human full length CDKL1 (M1 to I358 residues) expressed in mammalian expression system at 1 uM by Kinomescan method relative to control
[4] = molecular target: Serine/threonine-protein kinase MRCK gamma (Homo sapiens) (UniProt Q6DT37); assay: Inhibition of wild-type human partial length DMPK2 (S46 to S408 residues) expressed in bacterial expression system at 1 uM by Kinomescan method relative to control
[5] = system: Receptor-type tyrosine-protein kinase FLT3 (Homo sapiens), P36888 [UNDEFINED MUTATION]; assay: Inhibition of human partial length FLT3 ITD/D835V double mutant expressed in bacterial expression system at 1 uM by Kinomescan method relative to control
[6] = molecular target: Tyrosine-protein kinase FRK (Homo sapiens) (UniProt P42685); assay: Inhibition of wild-type human partial length FRK (A215 to F503 residues) expressed in bacterial expression system at 1 uM by Kinomescan method relative to control
[7] = molecular target: Glycogen synthase kinase-3 beta (Homo sapiens) (UniProt P49841); assay: Inhibition of wild-type human full length GSK3B (M1 to T433 residues) expressed in mammalian expression system at 1 uM by Kinomescan method relative to control
[8] = molecular target: Homeodomain-interacting protein kinase 2 (Homo sapiens) (UniProt Q9H2X6); assay: Inhibition of wild-type human partial length HIPK2 (M153 to S564 residues) expressed in mammalian expression system at 1 uM by Kinomescan method relative to control
[9] = molecular target: Tyrosine-protein kinase JAK3 (Homo sapiens) (UniProt P52333); assay: Inhibition of wild-type human partial length JAK3 JH1 catalytic domain (I781 to S1124 residues) expressed in mammalian expression system at 1 uM by Kinomescan method relative to control
[10] = molecular target: Microtubule-associated serine/threonine-protein kinase 1 (Homo sapiens) (UniProt Q9Y2H9); assay: Inhibition of wild-type human partial length MAST1 (S346 to V730 residues) expressed in mammalian expression system at 1 uM by Kinomescan method relative to control
Microtubule-associated serine/threonine-protein kinase 1 (Homo sapiens), sequence (Q9Y2H9 whole entry, looked up, the tested form may be a part): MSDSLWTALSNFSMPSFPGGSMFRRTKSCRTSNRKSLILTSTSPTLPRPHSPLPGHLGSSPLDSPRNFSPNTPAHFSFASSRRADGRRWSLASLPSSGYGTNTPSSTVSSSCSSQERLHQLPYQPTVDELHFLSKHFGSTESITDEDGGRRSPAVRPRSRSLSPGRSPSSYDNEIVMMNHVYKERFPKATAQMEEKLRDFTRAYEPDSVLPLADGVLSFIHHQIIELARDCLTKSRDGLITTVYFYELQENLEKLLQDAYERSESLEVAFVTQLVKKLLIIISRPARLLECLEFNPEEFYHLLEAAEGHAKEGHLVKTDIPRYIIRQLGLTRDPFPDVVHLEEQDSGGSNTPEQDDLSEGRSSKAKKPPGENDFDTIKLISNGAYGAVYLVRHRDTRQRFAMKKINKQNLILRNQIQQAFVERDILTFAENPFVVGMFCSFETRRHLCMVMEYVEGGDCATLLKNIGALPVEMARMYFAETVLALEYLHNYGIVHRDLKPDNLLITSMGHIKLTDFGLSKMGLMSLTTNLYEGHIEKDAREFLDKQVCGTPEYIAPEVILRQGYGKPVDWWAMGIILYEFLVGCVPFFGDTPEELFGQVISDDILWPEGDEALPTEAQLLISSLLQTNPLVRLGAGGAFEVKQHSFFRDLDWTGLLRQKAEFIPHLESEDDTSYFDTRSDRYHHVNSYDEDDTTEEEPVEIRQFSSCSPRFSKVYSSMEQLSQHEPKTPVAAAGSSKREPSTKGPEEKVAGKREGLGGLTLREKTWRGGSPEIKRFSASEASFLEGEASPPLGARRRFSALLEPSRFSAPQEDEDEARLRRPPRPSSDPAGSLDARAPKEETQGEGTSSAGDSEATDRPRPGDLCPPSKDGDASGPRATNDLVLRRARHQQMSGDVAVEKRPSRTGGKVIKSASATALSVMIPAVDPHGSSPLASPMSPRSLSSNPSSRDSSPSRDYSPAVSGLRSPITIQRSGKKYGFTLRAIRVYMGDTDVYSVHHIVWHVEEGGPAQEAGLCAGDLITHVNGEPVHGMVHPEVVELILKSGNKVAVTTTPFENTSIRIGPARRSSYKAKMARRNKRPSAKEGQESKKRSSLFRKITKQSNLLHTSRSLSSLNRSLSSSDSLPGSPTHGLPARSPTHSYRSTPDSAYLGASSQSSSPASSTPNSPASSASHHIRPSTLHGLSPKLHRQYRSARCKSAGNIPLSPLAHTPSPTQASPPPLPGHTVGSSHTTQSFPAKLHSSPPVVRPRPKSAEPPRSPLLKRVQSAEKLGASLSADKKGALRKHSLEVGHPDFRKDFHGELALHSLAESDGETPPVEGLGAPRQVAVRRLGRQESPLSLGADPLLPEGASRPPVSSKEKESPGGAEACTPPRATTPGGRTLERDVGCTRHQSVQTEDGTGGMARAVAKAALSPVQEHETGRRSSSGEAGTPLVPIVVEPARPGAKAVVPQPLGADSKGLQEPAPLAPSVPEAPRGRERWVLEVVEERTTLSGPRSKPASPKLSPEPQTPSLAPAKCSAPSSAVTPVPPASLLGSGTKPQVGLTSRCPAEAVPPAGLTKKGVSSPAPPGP

[11] = molecular target: Serine/threonine-protein kinase 3 (Homo sapiens) (UniProt Q13188); assay: Inhibition of wild-type human partial length MST2 (D17 to E318 residues) expressed in bacterial expression system at 1 uM by Kinomescan method relative to control
[12] = molecular target: Serine/threonine-protein kinase Nek6 (Homo sapiens) (UniProt Q9HC98); assay: Inhibition of wild-type human full length NEK6 (M8 to T313 residues) expressed in bacterial expression system at 1 uM by Kinomescan method relative to control
Serine/threonine-protein kinase Nek6 (Homo sapiens), sequence (Q9HC98 whole entry, the tested form may be a part): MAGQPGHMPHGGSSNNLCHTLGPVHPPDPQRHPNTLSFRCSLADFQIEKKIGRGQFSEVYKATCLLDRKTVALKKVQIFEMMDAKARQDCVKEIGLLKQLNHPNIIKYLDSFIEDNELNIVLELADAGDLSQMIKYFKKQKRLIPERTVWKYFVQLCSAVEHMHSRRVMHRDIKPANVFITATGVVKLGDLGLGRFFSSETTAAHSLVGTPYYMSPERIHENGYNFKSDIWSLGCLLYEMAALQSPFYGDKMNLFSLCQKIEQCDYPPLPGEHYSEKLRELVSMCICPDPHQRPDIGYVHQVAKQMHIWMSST

[13] = molecular target: Serine/threonine-protein kinase Nek7 (Homo sapiens) (UniProt Q8TDX7); assay: Inhibition of wild-type human full length NEK7 (M1 to S302 residues) expressed in bacterial expression system at 1 uM by Kinomescan method relative to control
[14] = molecular target: Serine/threonine-protein kinase PAK 1 (Homo sapiens) (UniProt Q13153); assay: Inhibition of wild-type human partial length PAK1 (S149 to H545 residues) expressed in bacterial expression system at 1 uM by Kinomescan method relative to control
[15] = molecular target: Cyclin-dependent kinase 2 homolog (Plasmodium falciparum (isolate 3D7)) (UniProt P61075); assay: Inhibition of wild-type Plasmodium falciparum full length PK5 (M1 to N288 residues) expressed in mammalian expression system at 1 uM by Kinomescan method relative to control
Cyclin-dependent kinase 2 homolog (Plasmodium falciparum (isolate 3D7)), sequence (P61075 whole entry, the tested form may be a part, canonical isoform): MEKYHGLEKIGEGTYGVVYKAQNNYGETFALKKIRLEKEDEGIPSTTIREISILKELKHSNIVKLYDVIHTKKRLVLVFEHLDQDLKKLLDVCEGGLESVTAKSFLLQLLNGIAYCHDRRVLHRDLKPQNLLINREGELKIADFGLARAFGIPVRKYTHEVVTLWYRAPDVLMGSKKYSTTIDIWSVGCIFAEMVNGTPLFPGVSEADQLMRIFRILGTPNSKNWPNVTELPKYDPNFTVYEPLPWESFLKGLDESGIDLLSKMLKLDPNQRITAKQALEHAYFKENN

[16] = system: Phosphatidylinositol 4,5-bisphosphate 3-kinase catalytic subunit alpha isoform (Homo sapiens), P42336 [E542K]; assay: Inhibition of human partial length PIK3CA E542K mutant (R108 to N1068 residues) expressed in mammalian expression system at 1 uM by Kinomescan method relative to control
[17] = system: Phosphatidylinositol 4,5-bisphosphate 3-kinase catalytic subunit alpha isoform (Homo sapiens), P42336 [Q546K]; assay: Inhibition of human partial length PIK3CA Q546K mutant (R108 to N1068 residues) expressed in mammalian expression system at 1 uM by Kinomescan method relative to control
[18] = molecular target: Serine/threonine-protein kinase D3 (Homo sapiens) (UniProt O94806); assay: Inhibition of wild-type human partial length PRKD3 (S543 to E863 residues) expressed in bacterial expression system at 1 uM by Kinomescan method relative to control
[19] = molecular target: Ribosomal protein S6 kinase alpha-5 (Homo sapiens) (UniProt O75582); assay: Inhibition of wild-type human partial length N-terminal RPS6KA5 kinase domain 1 expressed in bacterial expression system at 1 uM by Kinomescan method relative to control
[20] = system: ALK tyrosine kinase receptor (Homo sapiens), Q9UM73 [C1156Y]; assay: Inhibition of wild-type human partial length ALK C1156Y mutant (I1088 to E1409 residues) expressed in mammalian expression system at 10 uM by Kinomescan method relative to control
[21] = molecular target: Serine/threonine-protein kinase DCLK1 (Homo sapiens) (UniProt O15075); assay: Inhibition of wild-type human partial length DCAMKL1 (L270 to A662 residues) expressed in mammalian expression system at 10 uM by Kinomescan method relative to control
[22] = molecular target: Phosphatidylinositol 4,5-bisphosphate 3-kinase catalytic subunit delta isoform (Homo sapiens) (UniProt O00329); assay: Inhibition of wild-type human partial length PIK3CD (R108 to Q1044 residues) expressed in mammalian expression system at 10 uM by Kinomescan method relative to control
Phosphatidylinositol 4,5-bisphosphate 3-kinase catalytic subunit delta isoform (Homo sapiens), sequence (O00329 whole entry, the tested form may be a part, canonical isoform): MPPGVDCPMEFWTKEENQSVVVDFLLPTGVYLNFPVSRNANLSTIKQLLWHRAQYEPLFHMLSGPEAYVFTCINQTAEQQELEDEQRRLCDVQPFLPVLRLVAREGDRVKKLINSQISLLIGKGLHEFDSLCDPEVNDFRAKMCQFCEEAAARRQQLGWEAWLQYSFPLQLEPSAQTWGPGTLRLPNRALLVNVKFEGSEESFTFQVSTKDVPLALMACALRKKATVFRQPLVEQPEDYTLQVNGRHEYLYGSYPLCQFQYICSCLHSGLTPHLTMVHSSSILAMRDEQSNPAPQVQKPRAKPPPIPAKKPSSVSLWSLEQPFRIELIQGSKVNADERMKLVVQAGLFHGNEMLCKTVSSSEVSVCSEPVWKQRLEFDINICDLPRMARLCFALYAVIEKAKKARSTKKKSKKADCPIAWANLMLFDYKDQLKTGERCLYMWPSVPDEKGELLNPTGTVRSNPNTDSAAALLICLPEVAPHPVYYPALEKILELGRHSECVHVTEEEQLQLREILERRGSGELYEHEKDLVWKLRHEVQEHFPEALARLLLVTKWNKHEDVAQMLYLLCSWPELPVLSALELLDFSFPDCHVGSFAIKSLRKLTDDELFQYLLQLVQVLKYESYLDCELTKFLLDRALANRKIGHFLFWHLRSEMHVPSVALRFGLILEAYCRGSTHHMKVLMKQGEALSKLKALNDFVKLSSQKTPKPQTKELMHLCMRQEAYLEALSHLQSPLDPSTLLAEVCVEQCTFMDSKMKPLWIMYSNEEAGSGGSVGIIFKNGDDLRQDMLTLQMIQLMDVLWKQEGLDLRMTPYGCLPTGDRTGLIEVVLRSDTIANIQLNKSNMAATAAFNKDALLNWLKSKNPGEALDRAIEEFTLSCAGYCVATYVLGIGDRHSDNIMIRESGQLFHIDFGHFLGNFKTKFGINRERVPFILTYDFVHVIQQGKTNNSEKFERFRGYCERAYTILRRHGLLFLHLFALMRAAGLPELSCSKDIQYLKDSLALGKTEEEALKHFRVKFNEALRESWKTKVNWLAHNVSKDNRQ

[23] = molecular target: Dual serine/threonine and tyrosine protein kinase (Homo sapiens) (UniProt Q6XUX3); assay: Inhibition of wild-type human full length RIPK5 (M1 to T929 residues) expressed in mammalian expression system at 10 uM by Kinomescan method relative to control
[24] = molecular target: SRSF protein kinase 3 (Homo sapiens) (UniProt Q9UPE1); assay: Inhibition of wild-type human partial length SRPK3 (P41 to P567 residues) expressed in bacterial expression system at 10 uM by Kinomescan method relative to control
SRSF protein kinase 3 (Homo sapiens), sequence (Q9UPE1 whole entry, the tested form may be a part): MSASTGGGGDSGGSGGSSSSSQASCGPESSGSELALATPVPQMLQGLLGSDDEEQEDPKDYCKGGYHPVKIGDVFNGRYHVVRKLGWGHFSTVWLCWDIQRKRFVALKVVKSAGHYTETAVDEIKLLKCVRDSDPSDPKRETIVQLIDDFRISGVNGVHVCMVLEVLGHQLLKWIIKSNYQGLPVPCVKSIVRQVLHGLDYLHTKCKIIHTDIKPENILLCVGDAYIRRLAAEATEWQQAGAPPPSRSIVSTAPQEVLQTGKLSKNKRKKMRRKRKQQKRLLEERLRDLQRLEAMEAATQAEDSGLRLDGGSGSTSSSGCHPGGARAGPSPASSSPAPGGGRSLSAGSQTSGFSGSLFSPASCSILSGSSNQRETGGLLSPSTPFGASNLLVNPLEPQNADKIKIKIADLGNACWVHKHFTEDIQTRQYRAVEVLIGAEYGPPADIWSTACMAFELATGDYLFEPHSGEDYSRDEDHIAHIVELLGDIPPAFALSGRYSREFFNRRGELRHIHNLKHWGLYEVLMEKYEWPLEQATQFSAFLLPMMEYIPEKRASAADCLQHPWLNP

[25] = molecular target: Serine/threonine-protein kinase WNK3 (Homo sapiens) (UniProt Q9BYP7); assay: Inhibition of wild-type human partial length WNK3 (M1 to D434 residues) expressed in mammalian expression system at 10 uM by Kinomescan method relative to control
[26] = molecular target: Tyrosine-protein kinase Yes (Homo sapiens) (UniProt P07947); assay: Inhibition of wild-type human partial length YES (T257 to L543 residues) expressed in bacterial expression system at 10 uM by Kinomescan method relative to control
Tyrosine-protein kinase Yes (Homo sapiens), sequence (P07947 2-543 limits assumed): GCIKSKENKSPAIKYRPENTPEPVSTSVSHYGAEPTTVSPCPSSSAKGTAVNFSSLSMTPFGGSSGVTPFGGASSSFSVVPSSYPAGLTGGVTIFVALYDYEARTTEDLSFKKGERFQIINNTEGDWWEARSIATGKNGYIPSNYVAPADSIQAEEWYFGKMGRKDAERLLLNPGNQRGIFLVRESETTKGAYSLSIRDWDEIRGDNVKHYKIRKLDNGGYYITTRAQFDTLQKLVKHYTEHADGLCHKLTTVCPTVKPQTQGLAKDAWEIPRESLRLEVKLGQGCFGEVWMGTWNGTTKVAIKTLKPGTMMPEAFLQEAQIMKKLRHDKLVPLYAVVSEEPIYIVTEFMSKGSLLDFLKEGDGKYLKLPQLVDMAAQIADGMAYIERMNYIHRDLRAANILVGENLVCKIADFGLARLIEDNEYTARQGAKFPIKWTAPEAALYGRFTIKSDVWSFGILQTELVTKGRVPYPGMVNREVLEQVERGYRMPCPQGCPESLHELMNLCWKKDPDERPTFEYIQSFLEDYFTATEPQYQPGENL

O=C(Nc1cccc([C@@H]2CN(c3ncnc4[nH]ccc34)CCN2CCO)c1)Nc1c(F)cccc1N1CCCC1
inhibition [1]: 100% | inhibition [2]: 0.3% | inhibition [3]: 73% | inhibition [4]: 100% | inhibition [5]: 3.5% | inhibition [6]: 99% | inhibition [7]: 83% | inhibition [8]: 100% | inhibition [9]: 4.3% | inhibition [10]: 93% | inhibition [11]: 64% | inhibition [12]: 86% | inhibition [13]: 92% | inhibition [14]: 75% | inhibition [15]: 100% | inhibition [16]: 79% | inhibition [17]: 89% | inhibition [18]: 86% | inhibition [19]: 99%

O=C(Nc1cccc([C@H]2CCCN(c3ncnc4[nH]ccc34)C2)c1)Nc1ccccc1N1CCCC1
inhibition [20]: 57% | inhibition [21]: 52% | inhibition [22]: 99% | inhibition [23]: 49% | inhibition [24]: 9% | inhibition [25]: 61% | inhibition [26]: 62%
